In patent US9556165B2 (priority 2012, dated 2017):
In brackets after ≈: the same amount, converted by molar mass. Where two headings read alike, the source gives them in different places.

How the values were obtained:
Format in all cases: cell-based
S. maltophilia ICB7569 = assay: MIC determination, broth microdilution (CLSI); settings: for MIC: Stenotrophomonas maltophilia, ICB7569, strain 10
A. baumannii ATCC15308 = assay: MIC determination, broth microdilution (CLSI); settings: for MIC: Acinetobacter baumannii, ATCC15308, strain 9
S. pneumoniae 113 = assay: MIC determination, broth microdilution (CLSI); settings: broth microdilution; for MIC: Streptococcus pneumoniae, 113, strain 13, read-out: MIC strain 13 (S. pneumoniae 113)
E. coli ATCC25922 = assay: MIC determination, broth microdilution (CLSI); settings: for MIC: Escherichia coli, ATCC25922, strain 1
E. coli J62-TEM-3 = assay: MIC determination, broth microdilution (CLSI); settings: Escherichia coli, J62TEM3, read-out: MIC strain 18 (E. coli J62-TEM-3), strain 18; broth microdilution
P. aeruginosa PAO1 = assay: MIC determination, broth microdilution (CLSI); settings: for MIC: Pseudomonas aeruginosa, PAO1, strain 6
Bacteria = assay: MIC determination in combination with β-lactamase inhibitors (constant 4 μg/mL)
C. freundii K21/3034 = assay: MIC determination, broth microdilution (CLSI); settings: for MIC: Citrobacter freundii, K21/3034, strain 4
[1] = tested on: P. aeruginosa 2297 (AmpC wt); assay: MIC determination, broth microdilution (CLSI); settings: for MIC: Pseudomonas aeruginosa, strain 7
E. cloacae 34654 = assay: MIC determination, broth microdilution (CLSI); settings: for MIC: Enterobacter cloacae, 34654, strain 3
H. influenzae ATCC 49247 = assay: MIC determination, broth microdilution (CLSI); settings: broth microdilution; for MIC: Haemophilus influenzae, ATCC49247, strain 12, read-out: MIC strain 12 (H. influenzae ATCC 49247)
K. pneumoniae 60 = assay: MIC determination, broth microdilution (CLSI); settings: for MIC: Klebsiella pneumoniae, 60, strain 2
S. aureus 133 = assay: MIC determination, broth microdilution (CLSI)
C. perfringens DSM756 = assay: microbe, parasite or virus in culture; settings: Clostridium perfringens, DSM756, read-out: MIC strain 16 (C. perfringens DSM756), strain 16; broth microdilution
M. morganii 126/3048 = assay: MIC determination, broth microdilution (CLSI); settings: for MIC: Morganella morganii, 126/3048, strain 5
E. coli J62 = assay: MIC determination, broth microdilution (CLSI); settings: broth microdilution; for MIC: Escherichia coli, J62, strain 17, read-out: MIC strain 17 (E. coli J62)
B. fragilis 6688 = assay: MIC determination, broth microdilution (CLSI); settings: Bacteroides fragilis, 6688, strain 15; broth microdilution; read-out: MIC strain 15 (B. fragilis 6688)
[2] = tested on: P. aeruginosa 2297-con (AmpC derepressed); assay: MIC determination, broth microdilution (CLSI); settings: for MIC: Pseudomonas aeruginosa, read-out: strain 8 MIC, strain 8
[3] = Staphylococcus aureus, 133, strain 11, read-out: strain 11 MIC
[4] = Staphylococcus aureus, 133, strain 14, broth microdilution, read-out: MIC strain 14 (S. aureus 133)

Row | Compound | MIC (S. maltophilia ICB7569) | MIC (A. baumannii ATCC15308) | MIC (S. pneumoniae 113) | MIC (E. coli ATCC25922) | MIC (E. coli J62-TEM-3) | MIC (P. aeruginosa PAO1) | MIC strain 19 (E. coli J62-TEM-3 + 4 μg/mL clavulanic acid) (Bacteria) | MIC strain 20 (E. coli J62-TEM-3 + 4 μg/mL sulbactam) (Bacteria) | MIC strain 21 (E. coli J62-TEM-3 + 4 μg/mL tazobactam) (Bacteria) | MIC (C. freundii K21/3034) | MIC [1] | MIC (E. cloacae 34654) | MIC (H. influenzae ATCC 49247) | MIC (K. pneumoniae 60) | MIC (S. aureus 133; [3]) | MIC (C. perfringens DSM756) | MIC (M. morganii 126/3048) | MIC (E. coli J62) | MIC (B. fragilis 6688) | MIC [2] | other results
1 | CC1(C)[C@H](NC(=O)/C(=N\OCCOc2ccc(C3=NCC(N)CN3)cc2)c2csc(N)n2)C(=O)N1OS(=O)(=O)O (stereo partly drawn) [Example 86, (2Z)-2-({2-[4-(5-Amino-1,4,5,6-tetrahydropyrimidin-2-yl)phenoxy]ethoxy}imino)-2-(2-amino-1,3-thiazol-4-yl)-N-[(3S)-2,2-dimethyl-4-oxo-1-(sulfooxy)azetidin-3-yl]ethanamide] | 32 µg/mL (≈ 53.6 µM) | 2 µg/mL (≈ 3.35 µM) | ≤ 0.063 µg/mL | 0.25 µg/mL (≈ 0.419 µM) | 16 µg/mL (≈ 26.8 µM) | 4 µg/mL (≈ 6.7 µM) | 0.25 µg/mL | 0.25 µg/mL | 0.5 µg/mL | 0.25 µg/mL (≈ 0.419 µM) | 8 µg/mL (≈ 13.4 µM) | 0.5 µg/mL (≈ 0.838 µM) | ≤ 0.063 µg/mL | 0.5 µg/mL (≈ 0.838 µM) | ≤ 0.063 µg/mL | 2 µg/mL (≈ 3.35 µM) | 0.5 µg/mL (≈ 0.838 µM) | 0.25 µg/mL (≈ 0.419 µM) | 4 µg/mL (≈ 6.7 µM) | 8 µg/mL (≈ 13.4 µM) | MIC (S. aureus 133; [4]): 4 µg/mL (≈ 6.7 µM)
2 | CC1(C)[C@H](NC(=O)/C(=N\OCCOc2ccc(C(=N)NCc3ccccn3)cc2)c2csc(N)n2)C(=O)N1OS(=O)(=O)O [Example 76, (2Z)-2-(2-Amino-1,3-thiazol-4-yl)-N-[(3S)-2,2-dimethyl-4-oxo-1-(sulfooxy)azetidin-3-yl]-2-[(2-{4-[N-(pyridin-2-ylmethyl)carbamimidoyl]phenoxy}ethoxy)imino]ethanamide] | 16 µg/mL (≈ 25.3 µM) | 4 µg/mL (≈ 6.32 µM) | ≤ 0.063 µg/mL | 0.5 µg/mL (≈ 0.79 µM) | 8 µg/mL (≈ 12.6 µM) | 16 µg/mL (≈ 25.3 µM) | 0.5 µg/mL | 0.5 µg/mL | 0.5 µg/mL | 0.5 µg/mL (≈ 0.79 µM) | 16 µg/mL (≈ 25.3 µM) | 1 µg/mL (≈ 1.58 µM) | 0.25 µg/mL (≈ 0.395 µM) | 0.5 µg/mL (≈ 0.79 µM) | ≤ 0.063 µg/mL | 2 µg/mL (≈ 3.16 µM) | 1 µg/mL (≈ 1.58 µM) | 0.5 µg/mL (≈ 0.79 µM) | 4 µg/mL (≈ 6.32 µM) | 32 µg/mL (≈ 50.6 µM) | MIC (S. aureus 133; [4]): 4 µg/mL (≈ 6.32 µM)
3 | CC1(C)[C@H](NC(=O)/C(=N\OCCOc2ccc(C3=NCC(CN)N3)cc2)c2csc(N)n2)C(=O)N1OS(=O)(=O)O (stereo partly drawn) [Example 91, (2Z)-2-[(2-{4-[5-(Aminomethyl)-4,5-dihydro-1H-imidazol-2-yl]phenoxy}ethoxy)imino]-2-(2-amino-1,3-thiazol-4-yl)-N-[(3S)-2,2-dimethyl-4-oxo-1-(sulfooxy)azetidin-3-yl]ethanamide] | 16 µg/mL (≈ 26.8 µM) | 1 µg/mL (≈ 1.68 µM) | ≤ 0.063 µg/mL | 0.125 µg/mL (≈ 0.21 µM) | 4 µg/mL (≈ 6.7 µM) | 2 µg/mL (≈ 3.35 µM) | 0.125 µg/mL | 0.125 µg/mL | 0.125 µg/mL | 0.125 µg/mL (≈ 0.21 µM) | 4 µg/mL (≈ 6.7 µM) | 0.25 µg/mL (≈ 0.419 µM) | ≤ 0.063 µg/mL | 0.125 µg/mL (≈ 0.21 µM) | ≤ 0.063 µg/mL | 2 µg/mL (≈ 3.35 µM) | 0.25 µg/mL (≈ 0.419 µM) | 0.125 µg/mL (≈ 0.21 µM) | 4 µg/mL (≈ 6.7 µM) | 2 µg/mL (≈ 3.35 µM) | MIC (S. aureus 133; [4]): 2 µg/mL (≈ 3.35 µM)
4 | CC1(C)[C@H](NC(=O)/C(=N\O[C@@H](COc2ccc(C(=N)NC3CCNCC3)cc2)C(=O)O)c2csc(N)n2)C(=O)N1OS(=O)(=O)O [Example 108, (2S)-2-({[(1Z)-1-(2-Amino-1,3-thiazol-4-yl)-2-{[(3S)-2,2-dimethyl-4-oxo-1-(sulfooxy)-azetidin-3-yl]amino}-2-oxoethylidene]amino}oxy)-3-{4-[N-(piperidin-4-yl)carbamimidoyl]phenoxy}propanoic acid] | 4 µg/mL (≈ 5.98 µM) | 1 µg/mL (≈ 1.5 µM) | 0.5 µg/mL (≈ 0.748 µM) | 0.125 µg/mL (≈ 0.187 µM) | 4 µg/mL (≈ 5.98 µM) | 0.5 µg/mL (≈ 0.748 µM) | ≦0.063 mg/L | ≦0.063 mg/L | 0.125 µg/mL | ≤ 0.063 µg/mL | 1 µg/mL (≈ 1.5 µM) | 0.125 µg/mL (≈ 0.187 µM) | ≤ 0.063 µg/mL | 0.125 µg/mL (≈ 0.187 µM) | ≤ 0.063 µg/mL | 1 µg/mL (≈ 1.5 µM) | ≤ 0.063 µg/mL | 0.125 µg/mL (≈ 0.187 µM) | 8 µg/mL (≈ 12 µM) | 1 µg/mL (≈ 1.5 µM) | MIC (S. aureus 133; [4]): 32 µg/mL (≈ 47.9 µM)
5 | CN(C)CCNC(=N)c1ccc(OCCO/N=C(\C(=O)N[C@@H]2C(=O)N(OS(=O)(=O)O)C2(C)C)c2csc(N)n2)cc1 [Example 40, (2Z)-2-(2-Amino-1,3-thiazol-4-yl)-2-{[2-(4-{N-[2-(dimethylamino)ethyl]carbamimidoyl}phenoxy)ethoxy]imino}-N-[(3S)-2,2-dimethyl-4-oxo-1-(sulfooxy)azetidin-3-yl]ethanamide] | 16 µg/mL (≈ 26.1 µM) | 2 µg/mL (≈ 3.26 µM) | ≤ 0.063 µg/mL | 0.125 µg/mL (≈ 0.204 µM) | 8 µg/mL (≈ 13.1 µM) | 4 µg/mL (≈ 6.53 µM) | 0.125 µg/mL | 0.25 µg/mL | 0.25 µg/mL | 0.125 µg/mL (≈ 0.204 µM) | 8 µg/mL (≈ 13.1 µM) | 0.5 µg/mL (≈ 0.816 µM) | ≤ 0.063 µg/mL | 0.25 µg/mL (≈ 0.408 µM) | ≤ 0.063 µg/mL | 2 µg/mL (≈ 3.26 µM) | 0.5 µg/mL (≈ 0.816 µM) | 0.25 µg/mL (≈ 0.408 µM) | 4 µg/mL (≈ 6.53 µM) | 4 µg/mL (≈ 6.53 µM) | –
6 | CC1(C)[C@H](NC(=O)/C(=N\OC(COc2ccc(C(=N)NCCN)cc2)C(=O)O)c2csc(N)n2)C(=O)N1OS(=O)(=O)O (mixture of isomers) [Example 44A, (2R and 2S)-3-{4-[N-(2-Aminoethyl)carbamimidoyl]phenoxy}-2-({[(1Z)-1-(2-amino-1,3-thiazol-4-yl)-2-{[(3S)-2,2-dimethyl-4-oxo-1-(sulfooxy)azetidin-3-yl]amino}-2-oxoethylidene]amino}oxy)propanoic acid] | – | – | – | – | 2 µg/mL | – | ≦0.063 mg/L | ≦0.063 mg/L | ≦0.063 mg/L | – | – | – | – | – | ≤ 0.063 µg/mL | 1 µg/mL | – | – | 8 µg/mL | – | strain 10 MIC (S. maltophilia ICB7569; strain 10): 2 µg/mL; strain 9 MIC (A. baumannii ATCC15308; strain 9): 2 µg/mL; MIC strain 13 (S. pneumoniae 113) (S. pneumoniae 113; strain 13): 0.5 µg/mL; strain 1 MIC (E. coli ATCC25922; strain 1): ≦0.063 mg/L; strain 6 MIC (P. aeruginosa PAO1; strain 6): 1 µg/mL; strain 4 MIC (C. freundii K21/3034; strain 4): ≦0.063 mg/L; strain 7 MIC [1]: 2 µg/mL; strain 3 MIC (E. cloacae 34654; strain 3): 0.125 µg/mL; MIC strain 12 (H. influenzae ATCC 49247) (H. influenzae ATCC 49247; strain 12): ≦0.063 mg/L; strain 2 MIC (K. pneumoniae 60; strain 2): ≦0.063 mg/L; MIC (S. aureus 133; [4]): 32 µg/mL; strain 5 MIC (M. morganii 126/3048; strain 5): 0.125 µg/mL; MIC strain 17 (E. coli J62) (E. coli J62; strain 17): 0.125 µg/mL; strain 8 MIC ([2]; strain 8): 1 µg/mL
7 | CN1CC[C@H](NC(=N)c2ccc(OC[C@H](O/N=C(\C(=O)N[C@@H]3C(=O)N(OS(=O)(=O)O)C3(C)C)c3csc(N)n3)C(=O)O)cc2)C1 [Example 101] | 8 µg/mL (≈ 12 µM) | 4 µg/mL (≈ 5.98 µM) | 0.5 µg/mL (≈ 0.748 µM) | 0.125 µg/mL (≈ 0.187 µM) | 8 µg/mL (≈ 12 µM) | 2 µg/mL (≈ 2.99 µM) | ≦0.063 mg/L | ≦0.063 mg/L | 0.125 µg/mL | 0.125 µg/mL (≈ 0.187 µM) | 4 µg/mL (≈ 5.98 µM) | 0.125 µg/mL (≈ 0.187 µM) | ≤ 0.063 µg/mL | 0.125 µg/mL (≈ 0.187 µM) | ≤ 0.063 µg/mL | 2 µg/mL (≈ 2.99 µM) | 0.125 µg/mL (≈ 0.187 µM) | 0.125 µg/mL (≈ 0.187 µM) | 8 µg/mL (≈ 12 µM) | 2 µg/mL (≈ 2.99 µM) | –
8 | CN1CC(NC(=N)c2ccc(OC[C@H](O/N=C(\C(=O)N[C@@H]3C(=O)N(OS(=O)(=O)O)C3(C)C)c3csc(N)n3)C(=O)O)cc2)C1 [Example 109] | 8 µg/mL (≈ 12.2 µM) | 2 µg/mL (≈ 3.05 µM) | 0.5 µg/mL (≈ 0.764 µM) | 0.125 µg/mL (≈ 0.191 µM) | 2 µg/mL (≈ 3.05 µM) | 2 µg/mL (≈ 3.05 µM) | ≦0.063 mg/L | 0.25 µg/mL | 0.125 µg/mL | 0.125 µg/mL (≈ 0.191 µM) | 2 µg/mL (≈ 3.05 µM) | 0.125 µg/mL (≈ 0.191 µM) | ≤ 0.063 µg/mL | 0.125 µg/mL (≈ 0.191 µM) | ≤ 0.063 µg/mL | 4 µg/mL (≈ 6.11 µM) | 0.125 µg/mL (≈ 0.191 µM) | 0.125 µg/mL (≈ 0.191 µM) | 16 µg/mL (≈ 24.4 µM) | 2 µg/mL (≈ 3.05 µM) | –
